ChEMBL document CHEMBL1770049, “Synthesis of novel mast cell-stabilising and anti-allergic 1,2,3,4-tetrahydro-1-naphthalenols and related compounds” (Eur J Med Chem, 2011)
Active and inactive are the calls of the source. The calls are words filed in the database; no cut-off is given here.

How the values were obtained:
[1] = Lipophilicity, log P of the compound; assay type: physicochemical; conditions: octanol/water
[2] = Antiallergic activity in rat Peritoneal mast cell assessed as inhibition of ionophore A23187-induced histamine release; assay type: functional, cell-based
Rattus norvegicus = assay: Antiallergic activity in sensitized rat assessed as inhibition of ovalbumin-induced passive cutaneous anaphylaxis at 3 mg/kg, iv after 30 mins relative to control; assay type: functional; conditions: 0.5 h
Mus musculus = assay: Antiinflammatory activity in Laca mouse assessed as inhibition of arachidonic acid induced ear oedema at 300 ug/ear; assay type: functional, organism-based
[3] = Antiallergic activity in rat Peritoneal mast cell assessed as inhibition of Con A-induced histamine release; assay type: functional, cell-based
[4] = Antiallergic activity in rat Peritoneal mast cell assessed as inhibition of compound 48/80-induced histamine release; assay type: functional, cell-based
[5] = Antiallergic activity in rat Peritoneal mast cell assessed as inhibition of compound 48/80-induced histamine release at 20 uM; assay type: functional

Row | Structure (SMILES) | logP [1] | IC50 [2] [µM] | inhibition in vivo at 3 mg/kg (Rattus norvegicus) [%] | Activity (Mus musculus) | IC50 [3] [µM] | IC50 [4] [µM] | inhibition at 20 µM [5] [%]
1 | OC1c2ccccc2CCC1(Cc1ccccc1)C1=Cc2ccccc2C1 (stereo not given) | 6.3 | 10 | -5 | Active | 0.75 | 4.1 | –
2 | CC(/C=C/c1ccccc1)(Cc1ccccc1)C(O)c1ccccc1 (stereo not given) | – | – | – | – | – | 70.9 | –
3 | CC(Cc1ccccc1)(C1=Cc2ccccc2CC1)C(O)c1ccccc1 (stereo not given) | – | – | – | inactive | – | 3.3 | –
4 | OC1c2ccccc2CC1(Cc1ccccc1)C1=Cc2ccccc2CC1 (stereo not given) | 6.3 | 4.7 | 2 | inactive | 3.6 | 7.7 | –
5 | Cc1ccc(CC2(/C=C/c3ccccc3)CCc3ccccc3C2O)cc1 (stereo not given) | – | – | – | – | – | 9.4 | –
6 | OC1c2ccccc2CCC1(/C=C/c1ccccc1)Cc1ccccc1 (stereo not given) | 6.58 | – | 44 | inactive | – | 55.3 | –
7 | O=C(O)c1cc(=O)c2c(OCC(O)COc3cccc4oc(C(=O)O)cc(=O)c34)cccc2o1 [CROMOLYN SODIUM] | – | – | 87 | – | – | – | 10
8 | O=C1c2ccccc2CCC1C1=Cc2ccccc2CC1 (stereo not given) | – | – | – | – | – | 8 | –
9 | CC(Cc1ccccc1)(C1=Cc2ccccc2C1)C(O)c1ccccc1 (stereo not given) | – | – | – | inactive | – | – | 82
